Values of other authors in US20090318526A1, “Use of cannabinoid receptor agonists as hypothermia inducing drugs for the treatment of ischemia” (priority 2006, published 2009).

System: Sprague-Dawley rats
Details: Leker et al. [37]

Q: Which induction of hypothermia (Sprague-Dawley rats) does the source give for CCCCCCC(C)(C)c1cc(O)c2c(c1)OC(C)(C)[C@@H]1CC=C(CO)C[C@@H]21 [HU-210, (−)-11-OH-delta-8-tetrahydrocannabinoldimethylheptyl] here?
A: did provide hypothermia

Q: What about the “protection against ischemic damages” value (Sprague-Dawley rats) of the same compound?
A: protection against ischemic damages

Q: What about the “side effects due to the treatment” value (rats) of the same compound?
A: hemodynamic and behavioural side effects
